Test systems include Escherichia coli D21; Escherichia coli W160-37; Escherichia coli ML-35p; Micrococcus luteus; Bacillus cereus; Streptococcus uberis; Staphylococcus aureus; Escherichia coli; Leuconostoc lactis; Listeria innocua; Pasteurella multocida; Escherichia coli MG1655; Pseudomonas aeruginosa.
What all share (test): ≥ marks a high value that may be exact or a test limit, other limits are often not marked, values filed in µg/mL are converted to µM
Assay [1] concerns Staphylococcus aureus ATCC 6538.
Assay [2] has as its system Escherichia coli ATCC 25922.
The test system of assay [3] is Staphylococcus aureus ATCC 700699.
The subject of assay [4] is Staphylococcus epidermidis.
Assay [5] concerns Batrachochytrium dendrobatidis.
Assay [6] concerns Staphylococcus aureus ATCC 33592.
Assay [7] relates to Klebsiella pneumoniae ATCC 700603.
The test system of assay [8] is Staphylococcus aureus ATCC 33591.
Assay [9] has as its system Staphylococcus aureus ATCC 29213.
Assay [10] deals with Pseudomonas aeruginosa ATCC 27853.
The test system of assay [11] is Shigella dysenteriae ATCC 9752.
The test system of assay [12] is Klebsiella pneumoniae ATCC 10031.
The subject of assay [13] is Staphylococcus epidermidis ATCC 12228.
Assay [14] deals with Salmonella enterica subsp. enterica serovar Typhimurium ATCC 14028.
Assay [15] concerns Staphylococcus aureus TK784.
Assay [16] has as its system Micrococcus luteus ATCC 10240.
The subject of assay [17] is Staphylococcus aureus ATCC 6538P.
For assay [18], the system named is Bacillus subtilis ATCC 6633.

Structures are written as SMILES. Values after ≈ are worked out from the molar mass of the structure shown. Values joined by “and” are separate entries in the source; they are usually repeats but may differ in a detail not shown here. Equal values may be shown once. Some results are limits rather than exact numbers.

For `CC[C@H](C)[C@H](NC(=O)[C@H](CCCCN)NC(=O)[C@H](CCCN=C(N)N)NC(=O)[C@@H](NC(=O)[C@H](CC(C)C)NC(=O)[C@H](CCC(N)=O)NC(=O)[C@@H](NC(=O)[C@H](Cc1ccc(O)cc1)NC(=O)[C@H](CCC(N)=O)NC(=O)[C@@H]1CCCN1C(=O)[C@@H](NC(=O)[C@H](CC(C)C)NC(=O)[C@@H](NC(=O)[C@H](Cc1c[nH]c2ccccc12)NC(=O)[C@H](CC(C)C)NC(=O)[C@H](CO)NC(=O)[C@@H]1CCCN1C(=O)[C@H](Cc1cnc[nH]1)NC(=O)[C@@H](N)Cc1ccccc1)C(C)C)[C@@H](C)CC)[C@@H](C)CC)[C@@H](C)CC)C(=O)N[C@@H](CC(C)C)C(=O)N[C@@H](CCCCN)C(=O)N[C@@H](CO)C(=O)NCC(=O)O` [FHPSLWVLIPQYIQLIRKILKSG], the MIC (in general, the lowest concentration that inhibits growth of the organism) in assay [1] was 35.4 µM (≈ 97.2 µg/mL); in [2], over 50 µM; with Escherichia coli D21, at least 50 µM.

`CC[C@H](C)[C@H](NC(=O)[C@H](CCCCN)NC(=O)[C@H](CCCN=C(N)N)NC(=O)[C@@H]1CCCN1C(=O)[C@@H](NC(=O)[C@H](CC(C)C)NC(=O)[C@H](CCCCN)NC(=O)[C@H](CC(C)C)NC(=O)[C@@H](N)Cc1ccccc1)[C@@H](C)CC)C(=O)N[C@H](C(=O)N[C@H](C(=O)N[C@@H](C)C(=O)N[C@@H](CC(C)C)C(N)=O)[C@@H](C)O)C(C)C` [FLKLIPRKIVTAL] had an MIC in the assay on Escherichia coli W160-37 of at least 265 µM.

In the case of `CC(=O)NCC(=O)N[C@@H](Cc1ccccc1)C(=O)N[C@@H](CCCN=C(N)N)C(=O)N[C@@H](CCCCN)C(=O)N[C@@H](Cc1ccccc1)C(=O)N[C@@H](Cc1cnc[nH]1)C(=O)N[C@@H](CCCCN)C(=O)N[C@@H](Cc1ccccc1)C(=O)N[C@@H](Cc1c[nH]c2ccccc12)C(=O)N[C@@H](C)C(N)=O` [GFRKFHKFWA], the MIC (against Escherichia coli ML-35p; in assay [3]) was at least 500 µM throughout.

As for `CC[C@H](C)[C@H](NC(=O)[C@H](CO)NC(=O)CNC(=O)[C@H](CC(C)C)NC(=O)[C@@H](NC(=O)CNC(=O)[C@H](Cc1ccccc1)NC(=O)[C@H](CC(C)C)NC(=O)CN)C(C)C)C(=O)N[C@@H](C)C(=O)N[C@@H](CCCCN)C(=O)N[C@@H](Cc1cnc[nH]1)C(=O)N[C@H](C(=O)N[C@@H](CC(C)C)C(=O)N1CCC[C@H]1C(=O)N[C@@H](Cc1cnc[nH]1)C(=O)N[C@H](C(=O)N[C@H](C(=O)N1CCC[C@H]1C(=O)N[C@H](C(=O)N[C@H](C(=O)N[C@@H](C)C(=O)N[C@@H](CCC(=O)O)C(=O)N[C@@H](CCCCN)C(=O)N[C@@H](CC(C)C)C(N)=O)[C@@H](C)CC)C(C)C)C(C)C)C(C)C)C(C)C` [GLFGVLGSIAKHVLPHVVPVIAEKL], the MIC in the assay with Micrococcus luteus is 19.3 µM (≈ 50 µg/mL); against Bacillus cereus, at least 38.5 µM; with Streptococcus uberis it was 19.3 µM (≈ 50 µg/mL); in assay [4] it was 9.64 µM (≈ 25 µg/mL); against Staphylococcus aureus, 4.63 µM (≈ 12 µg/mL); in the assay with Escherichia coli, over 38.5 µM. Besides, the MIC against Leuconostoc lactis is 4.63 µM (≈ 12 µg/mL); in [5], at least 35.4 µM; against Listeria innocua, 19.3 µM (≈ 50 µg/mL); against Pasteurella multocida, 19.3 µM (≈ 50 µg/mL).

Consider `CC[C@H](C)[C@H](NC(=O)[C@H](Cc1c[nH]c2ccccc12)NC(=O)[C@H](CO)NC(=O)CNC(C)=O)C(=O)N[C@@H](CCCCN)C(=O)N[C@@H](CCCN=C(N)N)C(=O)N[C@@H](CC(C)C)C(=O)N[C@@H](CC(N)=O)C(=O)N[C@@H](CO)C(=O)N[C@@H](Cc1c[nH]c2ccccc12)C(=O)N[C@@H](CC(C)C)C(=O)N[C@@H](CCCN=C(N)N)C(=O)N[C@@H](CCCCN)C(N)=O` [GSWIKRLNSWLRK], for which the MIC was at least 38.9 µM in assay [6]; 4 µM and 8 µM against Escherichia coli MG1655.

For `CC[C@H](C)[C@H](NC(=O)[C@H](CC(=O)O)NC(=O)[C@H](CCCCN)NC(=O)[C@H](C)NC(=O)[C@H](CC(C)C)NC(=O)CNC(=O)[C@H](CCCCN)NC(=O)[C@H](CC(C)C)NC(=O)[C@@H](NC(=O)[C@H](CC(=O)O)NC(=O)[C@@H](NC(=O)[C@@H](NC(=O)CN)C(C)C)C(C)C)[C@@H](C)CC)C(=O)N[C@@H](C)C(=O)NCC(=O)N[C@@H](Cc1cnc[nH]1)C(=O)N[C@@H](CC(C)C)C(=O)N[C@@H](C)C(=O)N[C@@H](CO)C(=O)N[C@@H](CCCCN)C(=O)N[C@H](C(=O)N[C@@H](CCSC)C(=O)N[C@@H](CC(N)=O)C(=O)N[C@@H](CCCCN)C(=O)N[C@@H](CC(C)C)C(N)=O)C(C)C` [GVVDILKGLAKDIAGHLASKVMNKL], the MIC in [3] is at least 50 µM; in assay [7], 50 µM (≈ 130 µg/mL); in [8], 25 µM (≈ 64.8 µg/mL); in [9], 50 µM (≈ 130 µg/mL); in assay [2] it was 12.5 µM (≈ 32.4 µg/mL); in assay [10], 100 µM (≈ 259 µg/mL).

Consider `CC(C)C[C@H](NC(=O)[C@H](Cc1c[nH]c2ccccc12)NC(=O)[C@H](CCCCN)NC(=O)[C@H](CCCCN)NC(=O)[C@H](CC(C)C)NC(=O)[C@H](Cc1c[nH]c2ccccc12)NC(=O)[C@H](CCCCN)NC(=O)[C@@H](N)CCCCN)C(=O)N[C@@H](CCCCN)C(N)=O` [KKWLKKWLK], for which the MIC in assay [11] was at least 63.6 µM; in assay [12], at least 63.6 µM; in assay [13] it was over 63.6 µM; in assay [14] it was over 63.6 µM; in assay [15] it was at least 63.6 µM; in assay [16], at least 63.6 µM. Further, the MIC was 31.8 µM (≈ 40 µg/mL) in assay [17], 31.8 µM (≈ 40 µg/mL) in assay [2], 63.6 µM (≈ 79.9 µg/mL) in assay [10] and at least 63.6 µM in assay [18].

With `CC(C)C[C@H](NC(=O)[C@H](Cc1c[nH]c2ccccc12)NC(=O)[C@H](CCCCN)NC(=O)[C@H](CCCCN)NC(=O)[C@H](CC(C)C)NC(=O)[C@H](Cc1c[nH]c2ccccc12)NC(=O)[C@@H](N)CCCCN)C(N)=O` [KWLKKWL], the MIC in assay [11] is at least 79.9 µM; in [12], at least 79.9 µM; in assay [13], over 79.9 µM; in assay [14] it was over 79.9 µM; in assay [15], at least 79.9 µM; in [16] it was at least 79.9 µM. Also, the MIC in assay [17] is at least 79.9 µM; in assay [2], over 79.9 µM; in assay [10], over 79.9 µM; in assay [18], at least 79.9 µM.

Consider `CC(C)C[C@H](NC(=O)[C@H](Cc1c[nH]c2ccccc12)NC(=O)[C@H](CCCCN)NC(=O)[C@H](CC(C)C)NC(=O)[C@H](CC(C)C)NC(=O)[C@H](CCCCN)NC(=O)[C@H](CCCCN)NC(=O)[C@H](CC(C)C)NC(=O)[C@@H](N)CC(C)C)C(=O)N[C@@H](CCCCN)C(=O)N[C@@H](CCCCN)C(N)=O` [LLKKLLKWLKK], for which the MIC in assay [11] was found to be 2.84 µM (≈ 4 µg/mL); in [12], 2.84 µM (≈ 4 µg/mL); in [13] it was 2.84 µM (≈ 4 µg/mL); in assay [14] it was 2.84 µM (≈ 4 µg/mL); in [15], 11.3 µM (≈ 16 µg/mL); in assay [16] it was 2.84 µM (≈ 4 µg/mL). Moreover, the MIC in assay [17] is 1.42 µM (≈ 2 µg/mL); in assay [2], 2.84 µM (≈ 4 µg/mL); in assay [10], 5.67 µM (≈ 7.99 µg/mL); in assay [18], 2.84 µM (≈ 4 µg/mL).

As to `CC[C@H](C)[C@H](NC(=O)[C@H](Cc1c[nH]c2ccccc12)NC(=O)[C@H](CCCCN)NC(=O)[C@H](CO)NC(=O)[C@H](CC(C)C)NC(=O)[C@H](Cc1ccccc1)NC(=O)[C@@H](NC(=O)[C@H](CCCCN)NC(=O)[C@H](CC(C)C)NC(=O)[C@H](CC(C)C)NC(=O)[C@H](CCCCN)NC(=O)[C@@H]1CCCN1)[C@@H](C)O)C(=O)NCC(=O)O` [PKLLKTFLSKWIG], the MIC with Staphylococcus aureus amounted to 3.27 µM (≈ 5 µg/mL); against Pseudomonas aeruginosa it was 19.6 µM (≈ 30 µg/mL); against Escherichia coli W160-37 it was 4.57 µM (≈ 7 µg/mL).
